Test: refractive index (Na D-line) (dimensionless); xn = mol fraction of the nth substance listed
Details: 103 kPa, Liquid, Standard Abbe refractometry

C=C[Si](OC)(OC)OC [trimethoxy(vinyl)silane] + CO[Si](C)(OC)c1ccccc1
refractive index
Details	298.15 K	303.15 K	308.15 K	313.15 K	318.15 K
x2 = 0	1.39022	1.38775	1.38535	1.3829	1.38046
x2 = 0.05	1.3954	1.39299	1.39056	1.38815	1.38572
x2 = 0.1	1.40052	1.39811	1.39569	1.39329	1.39082
x2 = 0.1499	1.40552	1.40314	1.40073	1.3983	1.39588
x2 = 0.2	1.41045	1.40807	1.40568	1.40327	1.40083
x2 = 0.2501	1.41527	1.41288	1.41047	1.40809	1.40568
x2 = 0.2999	1.41998	1.41762	1.41524	1.41284	1.41043
x2 = 0.35	1.42465	1.42228	1.41987	1.4175	1.4151
x2 = 0.4001	1.42919	1.42683	1.42444	1.42208	1.41967
x2 = 0.4501	1.43364	1.43129	1.42891	1.42653	1.42413
x2 = 0.5	1.43793	1.43559	1.43321	1.43084	1.42843
x2 = 0.5499	1.44232	1.43996	1.43759	1.4352	1.43283
x2 = 0.6	1.44653	1.44418	1.44182	1.43943	1.43706
x2 = 0.6499	1.45067	1.44831	1.44594	1.44356	1.4412
x2 = 0.7	1.45459	1.45224	1.4499	1.44754	1.44517
x2 = 0.75	1.45871	1.45636	1.454	1.45165	1.44929
x2 = 0.8001	1.46249	1.46015	1.45778	1.45542	1.45307
x2 = 0.8498	1.46647	1.46413	1.46178	1.45942	1.45707
x2 = 0.8999	1.47026	1.46791	1.46557	1.46321	1.46087
x2 = 0.9499	1.47397	1.47163	1.46928	1.46693	1.46458

Source: the NIST ThermoML archive (doi:10.1016/j.jct.2016.10.033)
